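All cell lines were grown in 96-well plates and treated with compound for 48 hours. Abbreviation: GI50, concentration required for 50% inhibition of growth. At the TGI there is no net growth.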
Key:
Test in all cases: growth of human tumour cells (NCI), 48 h
UO-31 renal = test system: UO-31 renal
NCI/ADR-RES ovarian = test system: NCI/ADR-RES ovarian
UACC-62 melanoma = test system: UACC-62 melanoma
MDA-MB-435 = test system: MDA-MB-435
OVCAR-8 ovarian = test system: OVCAR-8 ovarian
MDA-MB-231 breast = test system: MDA-MB-231 breast
KM20L2 colon = test system: KM20L2 colon
DLD-1 colon = test system: DLD-1 colon

Row | SMILES | GI50 (UO-31 renal) | TGI (UO-31 renal) | GI50 (NCI/ADR-RES ovarian) | TGI (NCI/ADR-RES ovarian) | GI50 (UACC-62 melanoma) | TGI (UACC-62 melanoma) | GI50 (MDA-MB-435) | TGI (MDA-MB-435) | GI50 (OVCAR-8 ovarian) | TGI (OVCAR-8 ovarian) | GI50 (MDA-MB-231 breast) | TGI (MDA-MB-231 breast) | TGI (KM20L2 colon) | TGI (DLD-1 colon)
1 | CCN(CC)CC(O)c1cc(-c2ccc(Cl)cc2)nc2cc(Cl)ccc12 (stereo not given) | 1060 nM | 3.27 µM | 2.25 µM | 6.04 µM | 1620 nM | 3.1 µM | 1710 nM | 3.32 µM | 1.96 µM | 4.12 µM | 1400 nM | 3.9 µM |  | 
2 | Cc1nc2cc(Nc3nc(Nc4ccc(F)cc4)nc(N4CCCC4)n3)ccc2n1Cc1ccccc1 | 1510 nM | 2.92 µM | 1.96 µM | 3.94 µM | 1620 nM | 2.99 µM | 1620 nM | 3.09 µM | 2.15 µM | 4.79 µM | 1780 nM | 3.27 µM |  | 
3 | COc1cccc(/C=C2\CCc3ccccc3C2=O)c1 | 10900 nM | 24.3 µM | 10.1 µM | 48.8 µM | 10800 nM | 25.7 µM | 4150 nM | 20.1 µM | 12.4 µM | 60.7 µM | 22800 nM | 87.6 µM |  | 
4 | Cn1c(=O)c(-c2c(Cl)cccc2Cl)cc2cnc(Nc3ccc(I)cc3)nc21 | 2440 nM | 8.28 µM |  | 0.225 µM | 301 nM | 1.28 µM | < 30.4 nM |  | 1.52 µM | > 100 µM | 259 nM | 1.29 µM |  | 
5 | O=C(NCCCl)NCc1ccccc1 |  | > 100 µM |  | > 100 µM |  | > 100 µM |  | > 100 µM |  | > 100 µM |  | > 100 µM |  | 
6 | COc1ccc2c(c1)CC1N(C)CCC13CCCCC23 (stereo not given) |  | > 100 µM |  | > 100 µM |  | > 100 µM |  | > 100 µM |  | > 100 µM |  | > 100 µM |  | 
7 | CC(C)(N)C(=O)N[C@@H]1C(=O)N2[C@@H]1SC(C)(C)[C@@H]2C(=O)O |  | > 100 µM |  | > 100 µM |  | > 100 µM |  | > 100 µM |  | > 100 µM |  | > 100 µM |  | 
8 | Nc1nc(-c2ccc3ccccc3c2)cc(-c2cc(-c3ccc4ccccc4c3)nc(N)n2)n1 |  | > 100 µM |  | > 100 µM |  | > 100 µM |  | > 100 µM |  | > 100 µM |  | > 100 µM |  | 
9 | NCCCCCCCCCn1c2c(c3ccccc3c1=O)C(=O)c1ccccc1-2 | 7680 nM | 18.6 µM | 9.47 µM | 22.4 µM | 9350 nM | 18.1 µM | 9520 nM | 19.1 µM | 12.5 µM | > 50 µM | 1130 nM | 11.1 µM |  | 
10 | COc1cc2oc(-c3ccc(O)cc3)cc(=O)c2c(OC)c1O |  | > 100 µM |  | > 100 µM |  | > 100 µM |  | > 100 µM |  | > 100 µM |  | > 100 µM |  | 
11 | COc1cc(OC)c(/C=C/C(=O)c2c(O)cc(OC)c(C3CCN(C)CC3)c2OC)c(OC)c1 | 1360 nM | 2.81 µM |  |  |  |  | 1530 nM | 2.92 µM |  |  |  |  |  | 
12 | COC(=O)[C@H](C)[C@@H]1CC[C@](C)(CCC2=C(C)CCCC2(C)C)OO1 |  | > 25 µM |  | > 25 µM |  | > 25 µM |  | > 25 µM |  | > 25 µM |  | > 25 µM |  | 
13 | CC/C(=C(/CC)c1ccc(O)cc1)c1ccc(O)cc1 | 6380 nM | 21.6 µM | 3.09 µM | 20.2 µM | 3890 nM | 16.8 µM | 1870 nM | 5.14 µM | 7.9 µM | 37.1 µM | 10000 nM | 25.2 µM |  | 
14 | NC(CSC1(c2ccc(Cl)cc2)c2ccccc2-c2ccccc21)C(=O)O (stereo not given) |  | 98.8 µM |  | > 100 µM |  | 34.4 µM |  | 35.3 µM |  | 38.7 µM |  | 35.7 µM |  | 
15 | O=[N+]([O-])c1cccc([I+]c2ccccc2)c1 | 8710 nM | 85.5 µM | 47.9 µM | > 100 µM |  |  | 11600 nM | 29.2 µM | 4.37 µM | 17.6 µM | 14800 nM | 33.6 µM |  | 
16 | COC(=O)Cc1nn2c(nc1=O)sc1ccc3ccccc3c12 |  | > 100 µM |  |  |  |  |  |  |  | > 100 µM |  |  | > 100 µM | > 100 µM
17 | Cn1cc(-c2ccc3nnc(C(F)(F)c4ccc5ncccc5c4)n3n2)cn1 | 28400 nM | > 100 µM | 62.2 µM | > 100 µM | 66100 nM | > 100 µM | 57800 nM | > 100 µM | 66.1 µM | > 100 µM | 34200 nM | > 100 µM |  | 
18 | ClCc1ccc(-c2ccc(Cn3cnc4c(Cl)ncnc43)cc2)cc1 | 2290 nM | 5.21 µM | 2.16 µM | 4.7 µM | 1580 nM | 3.44 µM |  |  | 2.8 µM | 8.95 µM | 1770 nM | 3.73 µM |  | 
19 | O=C1Nc2c(ccc(Cl)c2Cl)/C1=C\c1cc(C(F)(F)F)cc(C(F)(F)F)c1 | 485 nM | 8.74 µM | 6.38 µM | 14.8 µM | 1770 nM | 7.41 µM | 1990 nM | 7.64 µM | 5.75 µM | 16 µM | 3740 nM | 10.8 µM |  | 
20 | COc1ccc2c(c1)C(=O)c1c-2c(OCCN2CCCCC2)nc2ccc(OC)cc12 | 259 nM | 1.67 µM | 0.761 µM | 10.3 µM | 1350 nM | 6.3 µM | 648 nM | 2.28 µM | 0.601 µM | 4.67 µM | 2710 nM | 15.3 µM |  | 
21 | CC(=O)Nc1ccc(Cc2ccc3[nH]c(=O)cc(C)c3c2)cc1 |  | > 100 µM |  | > 100 µM |  | > 100 µM |  | > 100 µM |  | > 100 µM |  | > 100 µM |  | 
22 | O=C(O)c1c[nH]c2c(ccc3[nH]cc(C(=O)O)c(=O)c32)c1=O |  | > 100 µM |  | > 100 µM |  | > 100 µM |  | > 100 µM |  | > 100 µM |  | > 100 µM |  | 
23 | CNC(=O)c1cc(Oc2ccc3nc(NC(=O)Nc4cc(C(F)(F)F)cc(C(F)(F)F)c4)sc3c2)ccn1 | 1260 nM | 2.68 µM |  |  | 583 nM | 2.1 µM | 1040 nM | 2.7 µM | 1.33 µM | 2.69 µM | 829 nM | 2.62 µM |  | 
24 | C=CCCCC(O)c1ccc(C(O)c2cnc3ccccc3c2)o1 (stereo not given) | 50900 nM | > 100 µM | 15.2 µM | 36.9 µM | 19800 nM | 39.8 µM | 22500 nM | 48.4 µM | 26.7 µM | 72 µM | 27000 nM | 69.9 µM |  | 

From PubChem BioAssay (NCI)
